# Read-outs that look alike come from different tables or passages of the source.
# How the values were obtained:
# mouse ear = experiment: ear swelling induced by application of CB2 agonist or arachidonic acid; format: in vivo
# Method: Therefore, 2-arachidonoylglycerol ether (2-AG-E), the stable form of an endogenous ligand candidate 2-arachidonoylglycerol, and a specific CB2 agonist HU-308 were examined whether they directly induce ear swelling and compared to the ear swelling induced by arachidonic acid (AA).
# Synthetically produced 2-AG-E and HU-308 were prepared with acetone to 1 or 10% (w/v) and 10% (w/v), respectively, and AA (Sigma) was prepared with acetone to 1.25% (w/v), on needed basis. 10 μL each of these substances was applied on each side of the left ear.
# CB2 [1] = target: T1, CB2 (Homo sapiens, UniProt P34972); experiment: cAMP production in forskolin-stimulated hCB2-expressing CHO cells; format: cell-based; design: expressed in transfected cells; host or cells: CHO cells; settings: for remaining activity at 0.1 µM: CHO, Forskolin (5 μM) + compound 0.1 μM, read-out: Amount of cAMP production compared to control (ratio (%))
# Target sequence in this assay (P34972 whole entry): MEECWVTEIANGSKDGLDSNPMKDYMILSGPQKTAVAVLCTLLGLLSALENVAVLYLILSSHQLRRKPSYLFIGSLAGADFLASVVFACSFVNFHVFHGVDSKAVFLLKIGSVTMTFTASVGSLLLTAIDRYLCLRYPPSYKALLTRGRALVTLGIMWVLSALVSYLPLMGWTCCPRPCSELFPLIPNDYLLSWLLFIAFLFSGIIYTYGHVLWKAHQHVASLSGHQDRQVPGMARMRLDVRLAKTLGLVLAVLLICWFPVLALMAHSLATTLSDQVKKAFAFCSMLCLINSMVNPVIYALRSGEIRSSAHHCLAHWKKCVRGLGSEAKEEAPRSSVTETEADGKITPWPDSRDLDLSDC
# [2] = tested on: wild-type and CB2-deficient mice; experiment: 2-AG-E-induced ear swelling in CB2-deficient mice; format: in vivo, mouse
# Method: As described under the item of “7. IgE-dependent ear swelling in CB2-deficient mice”, female CB2-KO mice and female WT mice were used as experimental animals.
# 10 μL of 2-AG-E (100 mg/mL acetone) was applied on each side of the left ears of the mice on the first day of experiment.
# (§1) The swelling of the ear was measured over time before and after the application of 2-AG-E using a dial thickness gauge. The difference between the values measured before and after the antigen application was defined as the degree of ear swelling. Then, AUC (area under the curve: the degree of ear swelling ×time) was determined from the changes of the degree of ear swelling with the time course, and given as mean ± standard error (S.E.). Student's t-test was used in the statistical treatment. A significance level less than 5% was assumed to be significant.
# [3] = tested on: WBB6F1-+/+ and WBB6F1-W/Wv mice; experiment: 2-AG-E-induced ear swelling in mast cell-deficient mice; format: in vivo, mouse; settings: topical 2-AG-E 100 mg/mL
# Method: The degree of allergic symptoms was examined in mice deficient (partially deficient) of mast cells, which cells are considered to largely contribute to allergic reactions.
# Female mice of WBB6F1-+/+ (normal mouse) strain and WBB6F1-W/W^v (mast cell-deficient mouse) strain were purchased from Japan SLC, Inc. and used as experimental animals.
# 10 μL 2-AG-E (100 mg/mL acetone) was applied on each side of the left ears of the mice on the first day of experiment.
# as §1, with “AUC” for “AUC (area under the curve: the degree of ear swelling ×time)”, “changes in” for “changes of”, “time course” for “time course,”
# [4] = tested on: IgE-dependent allergic dermatitis
# Method: (§2) Using a triphase dermatitis model that can be induced by antigen in mouse passively sensitizationed with IgE, the actions of CB2 inverse agonist and CB2 agonist were examined.
# (§3) *Animal: 8 to 10 weeks-old Female BALB/c mouse (Japan SLC Inc.) was used.
# (§4) Preparation of solvent: MC was dissolved in distilled water to prepare an aqueous 0.5% MC solution.
# (§5) Anti-DNP IgE (antibody against DNP; Yamasa Corp.) was prepared to 15 μg/mL with physiological saline. 0.2 mL of the resulting solution was given through the caudal vein to the mouse.
# (§6) Antigen preparation: 0.15% (w/v) of DNFB (2,4-dinitrofluorobenzene) was prepared in a mixed solution of acetone and olive oil (3:1, v/v) on needed basis.
# (§7) Antigen application: 25 μl of the antigen solution was applied on each side of both of the ears 24 hours after the administration of the anti-DNP IgE.
# (§8) From the next day of the antigen application to day 8 after the antigen application, 10 mL/kg test compound was orally administered once a day 9 times in total. On the day of antigen application, the test compound was administered one hour before the antigen application and the test compound was administered one hour before the measurement of the thickness of the ear on day 8 after the antigen application.
# (§9) Before and 8 days after the antigen application, the thickness of the ear was measured with a dial thickness gauge (Mitutoyo Corp.). The difference between the value measured before the antigen application and at each time point was used as an index of swelling.
# (§10) After the measurement of ear swelling, spleen and thymus were harvested to weigh their wet weights.
# [5] = tested on: IgE-dependent allergic dermatitis; settings: mouse, in vivo, po
# Method: as §2, §3, §4, §5, §6, §7, §8, §9, §10
# CB2 [6] = target: T1, CB2; design: host or cells: CHO cells expressing CB2; settings: CB2 expressing CHO cells; non-patent reference 3; cited from earlier work
# Target sequence in this assay (P34972 whole entry, species assumed): as the sequence (P34972 whole entry) above
# [7] = tested on: spontaneous scratching reaction; experiment: spontaneous scratching reaction of NC mouse; format: in vivo; settings: NC/Jic mice; oral once a day for 3 weeks; vs solvent control
# From the text: Currently, NC mouse is used as an animal model of atopic dermatitis. No dermatitis or scratching action is observed when the mouse is kept in an environment under the control of atmospheric microorganisms (in SPF environment). However, when the mouse is kept in a conventional environment, scratching action together with the onset of dermatitis can be observed from about week 8 and the symptom progresses into chronic symptom (J. Dermatol. Sci., 25, 20-28, 2001).
# Preparation of solvent: MC was dissolved in tap water to prepare an aqueous 0.5% (w/v) MC solution.
# As positive controls, betamethasone valerate (Sigma) and tacrolimus hydrate (extracted from Prograf (Fujisawa Pharmaceutical Co., Ltd.)) were similarly prepared to 1 mg/mL. Betamethasone valerate is one of the adrenocorticosteroids that is considered to be effective for the treatment of atopic dermatitis. Tacrolimus hydrate is a therapeutic agent of atopic dermatitis which is known as an immunosuppressor as described above.
# The mice (A) were taken away from the cage and the NC/Jic mice were used at the age of 16 weeks.
# Breeding conditions: The mice were fed with solid feed CA-1 (CLEA JAPAN INC.) ad libitum and tap water as drinking water ad libitum, and kept at a temperature of 22±2° C. and a humidity of 55±10% under lighting from 8:00 a.m. to 20:00 p.m.
# From 10 days before the start of the experiment, the number of scratching behavior with hind legs of the mice was visually counted (for 20 minutes; once daily) over 2 days or 3 days. Among the plural mice counted, mice with 50 or more average scratching movements per day were selected for use.
# The behavior of the mice was filmed under unattended environment with a video camera to count the scratching motion with hind legs for one hour. […] This series of scratching motions was counted as one scratching movement, and all such scratching movements were counted irrespective of scratched sites. The measurement was done on the starting day of administration, and one day, 3, 6, 10, 13, 17 and 20 days after the start of administration. […]
# [8] = tested on: DNFB-induced allergic dermatitis; experiment: murine DNFB-induced allergic dermatitis model; format: in vivo, mouse; settings: 24 hours after the fifth antigen application; oral dosing
# Method: The model is produced by repeating antigen sensitization and induction in mouse to induce contact dermatitis that involves increase of IgE antibody titer, i.e., inflammation similar to atopic dermatitis (J. Allergy Clin. Immunol., 100 (6Pt2), 39-44, December 1997).
# Furthermore, by dilution, 0.1 mg/mL and 0.01 mg/mL suspensions were prepared. In addition, as positive controls, 0.5 mg/mL, 0.2 mg/mL and 0.1 mg/mL solutions of prednisolone (Sigma) were similarly prepared.
# During the period from the next day of the third antigen application to the next day of the fifth antigen application, 10 mL/kg of the above-described test compound was administered once a day 15 times in total.
# The difference of thickness was used as an index of swelling. FIGS. 1 and 2 show the results of the measurement at the fourth and fifth antigen applications, together with the results of the positive controls.
# 24 hours after the fifth antigen application, the spleen was harvested from the mouse exsanguinated under anesthesia with ether. The wet weight of the spleen was measured.
# antigen-induced asthma = experiment: antigen-induced immediate type asthma, late-type asthma and airway hypersensitivity in guinea pigs; format: in vivo, guinea pig; settings: oral, compound A 10, 30, 100 mg/kg, positive controls 30 mg/kg
# Method: The test compound was further diluted to 20, 6 and 2 mg/mL on needed basis. As positive controls, 6 mg/mL pranlukast hydrate (extracted from Onon™ (Ono Pharmaceutical Co., Ltd.)) and 6 mg/mL prednisolone (Sigma) were similarly prepared.
# Sensitization: Using an ultrasonic nebulizer (NE-U12; OMRON), a 6-weeks old male Hartley guinea pig (Kudo, Co., Ltd.) was continuously inhaled with 1% OVA (ovalbumin; Sigma)-containing physiological saline for 10 minutes per day for 8 consecutive days.
# Antigen challenge: One week after the last sensitization, 2% OVA was similarly inhaled for 5 minutes. 24 hours before and one hour after the OVA challenge, metyrapone-containing physiological saline (Aldrich, 10 mg/mL) was administered intravenously and 30 minutes before the OVA induction, pyrilamine-containing physiological saline (Sigma, 10 mg/kg) was administered intraperitoneally.
# During the 8 days of sensitization, the test compound was given one hour before the sensitization. On the day of the antigen challenge, the test compound was given one hour before the challenge. As solvent controls, the vehicle was similarly administered in accordance with OVA induction and physiological saline induction.
# As positive controls, pranlukast hydrate was administered one hour before the challenge, while prednisolone was administered 16 hours and 2 hours before the challenge. The animals were fasted 16 to 18 hours before the oral administration.
# Using total respiratory function analysis system (Pulmos-I, M.I.P.S. Company), the pre value was measured. Subsequently, specific airway resistance (hereinafter referred to as sRaw) per 100 breathes was measured one minute and 2, 4, 5, 6, 7 and 8 hours after the OVA challenge, and further once between 22 to 26 hours after the challenge, respectively. The average was used as sRaw at each measured time point. The increment ratio of sRaw was calculated by the following formula.
# Increment ratio of sRaw (%)=[(sRaw at each measured time point −sRaw before the challenge)/(sRaw before the challenge)]×100
# Twenty-two to 26 hours after the antigen challenge, each of 0.0625, 0.125, 0.25, 0.5, 1 and 2 mg/mL solutions of physiological saline and acetylcholine (hereinafter referred to as ACh) were sequentially inhaled for one minute, until the sRaw was 2-fold or more to the baseline sRaw (sRaw after inhalation of physiological saline). Based on the ACh concentration and the concentration-resistance curve of sRaw, the ACh concentration required for the sRaw to achieve 100% increase from the baseline sRaw, i.e., PC100ACh was determined.
# [9] = 8 days after antigen application, oral dosing
smiles,measurement,setting,value
"CCCCC/C=C\C/C=C\C/C=C\C/C=C\CCCC(=O)O [AA, arachidonic acid]",time after which swelling disappeared,mouse ear; topical AA 1.25% (w/v),2 days
same,time of peak ear swelling after the application,mouse ear; topical application on ear,one
same,ear swelling induced by application on the ear,"mouse ear; topical in acetone, 2-AG-E 1 or 10%, HU-308 10%, AA 1.25% (w/v)",swelling that reached a peak one hour after the application
CCCCCOc1c(OC)ccc2cc(C(=O)NCCN3CCOCC3)c(=O)[nH]c12 [B],remaining activity at 0.1 µM,CB2 [1],430%
CCCCOc1c(OC)ccc2cc(C(=O)NCCc3ccc(F)cc3)c(=O)[nH]c12 [C],remaining activity at 0.1 µM,CB2 [1],212%
"CCCCC/C=C\C/C=C\C/C=C\C/C=C\CCCC(=O)OC(CO)CO [Compound 2-AG, 2-arachidonoylglycerol]",forskolin-stimulated cAMP production,"CB2 [1]; hCB2-expressing CHO cells, statement in definitions",suppress the forskolin-stimulated cAMP production
"CCCCC/C=C\C/C=C\C/C=C\C/C=C\CCCCOC(CO)CO [Compound 2-AG-E, 2-arachidonoylglycerol ether]","2-AG-E-induced dermatitis, CB2-deficient mice, very late phase",[2]; CB2-KO,no significant inflammation was observed
same,"2-AG-E-induced dermatitis, CB2-deficient mice, early phase","[2]; CB2-KO, topical 2-AG-E 100 mg/mL",developed dermatitis in the early phase
same,"2-AG-E-induced dermatitis, CB2-deficient mice, late phase","[2]; CB2-KO, vs wild-type",inflammation was milder in the late phase
same,"2-AG-E-induced dermatitis (ear swelling), wild-type mice","[2]; wild-type C57BL/6 J, topical 2-AG-E 100 mg/mL",developed dermatitis in the very late phase in addition to the early phase and late phase
same,forskolin-stimulated cAMP production,CB2 [1],suppress the forskolin-stimulated cAMP production
same,functional character at CB2 (inverse agonist / agonist),CB2 [1],agonists
same,"2-AG-E-induced dermatitis, mast cell-deficient (WBB6F1-W/Wv) mice",[3],developed dermatitis
same,"2-AG-E-induced dermatitis, wild-type (WBB6F1-+/+) mice",[3]; vs mast cell-deficient mice,more severe dermatitis
same,ear swelling induced by application on the ear,"mouse ear; mouse, in vivo",concentration-dependent ear swelling
same,time of peak ear swelling after the application,"mouse ear; mouse, in vivo",1 to 2 h
CCCCCOc1c(OC)ccc2cc(C(=O)NCCc3ccncc3)c(=O)n(C)c12 [F],remaining activity at 0.1 µM,CB2 [1],218%
CCCCCCC(C)(C)c1cc(OC)c([C@@H]2C=C(CO)[C@@H]3C[C@H]2C3(C)C)c(OC)c1 [HU-308],wet weight of the spleen,[4]; [9],Significant decrease
same,"ear swelling, very late phase","[4]; 8 days after application, oral once a day, compound A 0.1, 1, 10 mg/kg, SR144528 0.1 mg/kg or higher, HU-308 10 and 50 mg/kg",no pharmacological effect was observed
CCCCCOc1c(OC)ccc2c1CC(=O)N(CCCN1CCOCC1)C2=O [I],remaining activity at 0.1 µM,CB2 [1],125%
Cc1ccc(Cn2nc(C(=O)N[C@H]3C4(C)CCC(C4)C3(C)C)cc2-c2ccc(Cl)c(C)c2)cc1 (some centres unmarked) [SR144528],wet weight of the spleen,[5],no apparent changes
same,wet weight of the thymus,[5],no apparent changes
same,"ear swelling, very late phase","[4]; mouse, in vivo",significant effect
same,forskolin-stimulated cAMP production,CB2 [6],elevate the production of cyclic adenosine-phosphate (cAMP)
CCCCC(=O)O[C@]1(C(=O)CO)[C@@H](C)C[C@H]2[C@@H]3CCC4=CC(=O)C=C[C@]4(C)[C@@]3(F)[C@@H](O)C[C@@]21C [betamethasone valerate],number of scratching movements,[7],suppressed the number of scratching movements
C[C@]12C=CC(=O)C=C1CC[C@@H]1[C@@H]2[C@@H](O)C[C@@]2(C)[C@H]1CC[C@]2(O)C(=O)CO [prednisolone],wet weight of the spleen,[4]; [9],significant suppression
same,wet weight of the thymus,[4]; [9],significant suppression
same,spleen wet weight,[8],decrease of spleen weight
same,airway hypersensitivity (PC100ACh),antigen-induced asthma; 22 to 26 hours after antigen challenge,suppressed
same,immediate type asthma response (sRaw immediately after antigen challenge),antigen-induced asthma,suppressed
same,late asthmatic response (sRaw over 4 to 8 hours after antigen challenge),antigen-induced asthma,suppressed
C=CC[C@@H]1/C=C(\C)C[C@H](C)C[C@H](OC)[C@H]2O[C@@](O)(C(=O)C(=O)N3CCCC[C@H]3C(=O)O[C@H](/C(C)=C/[C@@H]3CC[C@@H](O)[C@H](OC)C3)[C@H](C)[C@@H](O)CC1=O)[C@H](C)C[C@@H]2OC [tacrolimus hydrate],number of scratching movements,[7],suppressed the number of scratching movements

# — patent publication US20040171613A1, “Therapeutic agent for non-immediate type allergic diseases” (JAPAN TOBACCO INC., priority 2001, published 2004)
